Measured values taken from patent publication US20250035634A1, “A METHOD FOR DETECTING CLUSTERING OF RAS PROTEIN” (Nanyang Technological University, priority 2021, published 2025).

Key:
KRasG12V = biological target: T1, KRasG12V (Homo sapiens, UniProt P01116, G12V); assay: nanobar-guided KRasG12V clustering (Enrichment Index) in U2OS cells; assay type: cell-based; conditions: for Enrichment Index (EI) of KRasG12V: mean±s.e.m.
T1 construct: through full-length KRasG12V, HRasG12V and the truncated Ras isoforms tK-Ras and tH-Ras; expressed in transfected cells; host or cells: U2OS
Source text: Arrays of nanostructures on SiO2 surface of bar shape are fabricated with two curved ends and flat sidewalls using electron beam lithography (EBL). […] To conduct EBL, the chips are spin-coated with an electron-sensitive layer, 300 nm of positive electron-beam resist poly (methyl methacrylate) (PMMA) (MicroChem), followed by a conductive polymer layer of AR-PC 5090.02 (Allresist). Desired patterns are then written on the polymer through exposure to EBL (FEI Helios NanoLab), and developed in isopropanol:methylisobutylketone (IPA:MIBK)=3:1 solution. Subsequently, a 30-nm chromium (Cr) mask is deposited onto the surface via thermal evaporation (UNIVEX 250 Benchtop) and lift-off in acetone. Nanostructures are generated through reactive ion etching with the mixture of CF4 and CHF3 (Oxford Plasmalab 80). After fabrication, scanning electron microscopy (SEM) (FEI Helios NanoLab) imaging can be performed after 10-nm Cr coating to measure the dimensional properties of nanostructures (FIG. 1, top). Before use, the nanostructured-chip is cleaned by Chromium Etchant (Sigma-Aldrich) to remove the remaining metal layer.
To culture the cells onto the nanostructured chip, the chip is first cleaned by air plasma treatment (Harrick Plasma) and sterilized by UV radiation. Additional coating reagents like extracellular matrix (ECM) protein components (e.g., fibronectin or gelatin, Sigma-Aldrich) can be added to promote cell attachment. After coating, the cells are plated and maintained in DMEM (Gibco) supplemented with fetal bovine serum (FBS, Life Technologies) and Penicillin-Streptomycin (Life Technologies) in a standard incubator at 37° C. with 5% CO2.
The Ras proteins can be expressed transiently by transfecting the fluorescent protein-tagged Ras plasmid (e.g., EGFP-KRasG12V, EGFP, enhanced green fluorescent protein) into cells using the Lipofectamine (Life Technologies) protocol or electroporation (e.g., Neon Transfection System, Thermo Fisher). If necessary, the transfection parameters (e.g., the amount of the plasmid, starvation time and expression time) and electroporation parameters (e.g., pulse voltage, pulse width, pulse number) can be optimized to reach the expected transfection efficiency and expression level. FBS can be removed at the expression step from the culture medium to prevent Ras activation.
To evaluate the effect of a Ras inhibitor on disrupting the Ras clusters, a gradient concentration and several treatment durations can be selected to determine the effective window. A control group with no treatment should be conducted at the same time. Before and after treatment of the same batch of cells can also be compared.
Cell imaging is performed with laser scanning confocal microscopy (Zeiss LSM 800 with Airyscan) and a Plan-Apochromat 100×/1.4 oil objective. EGFP is excited at 488 nm and detected at 490-570 nm. RFP is excited at 561 nm and detected at 570-645 nm. Images were taken with a resolution of 512×512 pixels, 16-bit and 124 nm pixel size. A scanning speed of 20 s/image and an averaging mode of 4 times/line can be applied. During imaging, the cells are maintained in live cell imaging solution (Thermo Fisher) at 37° C. in an on-stage incubator. […] The images are conducted with a single snap shot for display of Ras variants and the quantification. For the imaging of co-expressed K-Ras variants and CRaf-RBD, z-stack images can be taken and averaged for display and the intensity profiles. The calculation of Pearson correlation coefficient is also based on single snap shot.
To quantify the nanobar-guided clustering of Ras variants, the fluorescence intensity ratio at the nanobar end to the flat sidewall (i.e. Enrichment Index, EI) is calculated. The background signals of each image are firstly subtracted by the rolling ball algorithm in ImageJ (radius=3 pixels for 250 nm diameter nanobars). Next, the nanobars covered by the cell to be analyzed are identified by a custom-written MATLAB (MathWorks) code. […]

HRasG12V = biological target: T2, HRasG12V (Homo sapiens, UniProt P01112, G12V); assay: nanobar-guided HRasG12V clustering (Enrichment Index) in U2OS cells; assay type: cell-based
T2 construct: through full-length KRasG12V, HRasG12V and the truncated Ras isoforms tK-Ras and tH-Ras; expressed in transfected cells; host or cells: U2OS
Source text: Arrays of nanostructures on SiO2 surface of bar shape are fabricated with two curved ends and flat sidewalls using electron beam lithography (EBL). […] To conduct EBL, the chips are spin-coated with an electron-sensitive layer, 300 nm of positive electron-beam resist poly (methyl methacrylate) (PMMA) (MicroChem), followed by a conductive polymer layer of AR-PC 5090.02 (Allresist). Desired patterns are then written on the polymer through exposure to EBL (FEI Helios NanoLab), and developed in isopropanol:methylisobutylketone (IPA:MIBK)=3:1 solution. Subsequently, a 30-nm chromium (Cr) mask is deposited onto the surface via thermal evaporation (UNIVEX 250 Benchtop) and lift-off in acetone. […]
Cell imaging is performed with laser scanning confocal microscopy (Zeiss LSM 800 with Airyscan) and a Plan-Apochromat 100×/1.4 oil objective. EGFP is excited at 488 nm and detected at 490-570 nm. RFP is excited at 561 nm and detected at 570-645 nm. […] The images are conducted with a single snap shot for display of Ras variants and the quantification. […]
To quantify the nanobar-guided clustering of Ras variants, the fluorescence intensity ratio at the nanobar end to the flat sidewall (i.e. Enrichment Index, EI) is calculated. […] Next, the nanobars covered by the cell to be analyzed are identified by a custom-written MATLAB (MathWorks) code. […]

K-Ras = biological target: T3, K-Ras (Homo sapiens, UniProt P01116); conditions: Hela cells, 4 hrs; read-out: IC50, NanoBit assay measuring K-Ras activation; cited from earlier work
T3 construct: host or cells: HeLa

HCT-116 cells = conditions: 24 hrs, read-out: IC50, MTT assay growth inhibition; cited from earlier work
ASPC-1 cells = conditions: 24 hrs, read-out: IC50, MTT assay growth inhibition; cited from earlier work
Calu-1 cells = conditions: 24 hrs, read-out: IC50, MTT assay growth inhibition; cited from earlier work

In the case of COc1ccc([C@@]23Oc4cc(OC)cc(OC)c4[C@]2(O)[C@H](O)[C@H](C(=O)N(C)C)[C@H]3c2ccccc2)cc1 [rocaglamide], the “detection limit: concentration at which effect on KRasG12V clustering is detected” value (KRasG12V; 1 hr treatment) is reported as 25 nM, the IC50 (KRasG12V; KRasG12V, 1 hr, one-phase decay fit of EI, read-out: IC50 of the nanobar assay, effect on K-Ras clustering) is reported as 0.0184 µM and the “effect on bar-end accumulated clustering of KRasG12V” value (KRasG12V; drug treatment vs DMSO, U2OS cells on nanobars) is reported as “significant reduction”. The “Enrichment Index (EI) of KRasG12V” value (KRasG12V; rocaglamide 25 nM, 1 hr) was 1.64±0.018, the “detection time: treatment time giving significant reduction of KRasG12V clustering” value (KRasG12V; rocaglamide 50 nM) was 15 min and the “Enrichment Index (EI) of KRasG12V” value (KRasG12V; rocaglamide 50 nM, 15 mins) was 1.72±0.032. For the same compound, the “Enrichment Index (EI) of KRasG12V” value (KRasG12V; rocaglamide 50 nM, 1 hr) was 1.55±0.021, the “Enrichment Index (EI) of KRasG12V” value (KRasG12V; rocaglamide 50 nM, 4 hrs) was 1.64±0.024 and the “Enrichment Index (EI) of KRasG12V” value (KRasG12V; rocaglamide 100 nM, 1 hr, U2OS cells) was 1.58±0.027. The “Enrichment Index (EI) of HRasG12V” value (HRasG12V; rocaglamide 100 nM, 4 hrs, U2OS cells, mean±s.e.m.) was 1.87±0.029, the “effect on bar-end accumulated clustering of HRasG12V” value (HRasG12V; same drug treatment vs DMSO, U2OS cells on nanobars) was “no obvious changes” and the IC50 (K-Ras) was 0.0248 µM. The IC50 (HCT-116 cells) was 0.00947 µM, the IC50 (ASPC-1 cells) was 0.0103 µM and the IC50 (Calu-1 cells) was 0.0119 µM.
